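Protocol summary: plate cells (96-well), add compound at 5 concentrations, incubate 48 h, interpolate endpoints linearly. Abbreviation: GI50, concentration required for 50% inhibition of growth. Definition used: TGI = concentration required for complete inhibition of growth.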

Some test systems named below: RPMI-8226 leukemia; SNB-75 CNS; 786-0 renal; ACHN renal; M14 melanoma; TK-10 renal; A498 renal; A549 NSCLC.
What all share (assay): NCI tumour cell line growth inhibition, 48 h

As for `COc1ccccc1/C=C(\NC(=O)c1ccccc1)c1nc2ccccc2[nH]1`, the TGI in the experiment with RPMI-8226 leukemia was 51.7 µM; in the experiment on SNB-75 CNS, greater than 100 µM; with 786-0 renal, greater than 100 µM; in the experiment with ACHN renal it was greater than 100 µM; in the experiment on M14 melanoma it was greater than 100 µM; in the experiment with TK-10 renal, greater than 100 µM. Also, the TGI with A498 renal and in the experiment on A549 NSCLC was greater than 100 µM in each case.
`O=C(NCCCN1CCN(CCCNC(=O)Nc2cc(Cl)ccc2Cl)CC1)Nc1cc(Cl)ccc1Cl`: the TGI in the experiment on RPMI-8226 leukemia was greater than 100 µM; with SNB-75 CNS, 82 µM; with 786-0 renal, greater than 100 µM; in the experiment on ACHN renal it was greater than 100 µM; in the experiment with M14 melanoma it was greater than 100 µM; in the experiment on TK-10 renal it was greater than 100 µM. In the experiment on A549 NSCLC, the TGI was greater than 100 µM.
With `Cc1cc(O)c2c(c1)OC1(C)CCC3C(C)(C)CCCC34COC2C14` (configuration not stated), the TGI is 30.7 µM in the experiment with 786-0 renal; 25.8 µM with ACHN renal; 29.1 µM in the experiment on M14 melanoma; 26 µM in the experiment with A498 renal; 28.6 µM in the experiment on A549 NSCLC.
Take `COC(=O)CCC(NC(=S)N/N=C(\C)c1cccs1)C(=O)OC` (configuration not stated): the TGI in the experiment with SNB-75 CNS, in the experiment on 786-0 renal, in the experiment with ACHN renal, with M14 melanoma, in the experiment with TK-10 renal and with A498 renal was greater than 100 µM each time. The same compound had a TGI in the experiment with A549 NSCLC greater than 100 µM.
As to `Nc1ccccc1SC(/C=C/NNC1=NC(c2ccccc2)C(c2ccccc2)=NN1)c1ccccc1` (configuration not stated), the TGI in the experiment with RPMI-8226 leukemia is 10.1 µM; in the experiment with SNB-75 CNS, 17.8 µM; in the experiment on 786-0 renal, 25 µM; in the experiment on ACHN renal it was 28.6 µM; with M14 melanoma it was 25.3 µM; in the experiment on TK-10 renal, 33.3 µM. The TGI turned out to be 36.8 µM in the experiment on A498 renal and 33.4 µM with A549 NSCLC.
Turning to `Cc1cccc(C=NC23CC4CC(CC(C4)C2)C3)c1`, the TGI in the experiment with RPMI-8226 leukemia, in the experiment on SNB-75 CNS, in the experiment with 786-0 renal, in the experiment with ACHN renal, in the experiment with M14 melanoma and in the experiment on TK-10 renal was greater than 100 µM throughout. The TGI in the experiment with A498 renal and in the experiment with A549 NSCLC was greater than 100 µM each time.
In the case of `N.N.N.N.O=S([O-])[O-].[Co+3].[N-]=[N+]=[N-]`, the GI50 in the experiment on RPMI-8226 leukemia was greater than 100 µM; in the experiment on SNB-75 CNS it was 70.4 µM; with 786-0 renal, greater than 100 µM; in the experiment on ACHN renal, greater than 100 µM; with M14 melanoma, greater than 100 µM; in the experiment with TK-10 renal it was greater than 100 µM. In addition, the GI50 with A498 renal and with A549 NSCLC was greater than 100 µM each time. Moreover, the TGI in the experiment on RPMI-8226 leukemia, with SNB-75 CNS, in the experiment with 786-0 renal, in the experiment with ACHN renal, with M14 melanoma and in the experiment on TK-10 renal was greater than 100 µM throughout. Besides, the TGI with A498 renal and with A549 NSCLC was greater than 100 µM throughout.
On to `O=C1c2ccccc2-c2c1c1ccccc1c(=O)n2CCNCCNCCNCCNCCn1c2c(c3ccccc3c1=O)C(=O)c1ccccc1-2`, for which the GI50 in the experiment with RPMI-8226 leukemia is 0.0178 µM; with 786-0 renal, 0.102 µM; with ACHN renal, 0.0446 µM; with TK-10 renal, 0.177 µM; with A549 NSCLC, 0.59 µM. The TGI in the experiment with RPMI-8226 leukemia was 0.187 µM; in the experiment on 786-0 renal, 2.19 µM; with ACHN renal, 0.58 µM; with TK-10 renal, 1.35 µM; with A549 NSCLC, 3.23 µM.
Take `COc1c2c(c(O)c3c4c(c(C)cc13)C1OC3(C(OC)OC5CC(C)(O)C(OC6CC(C)(O)C(O)C(C)O6)C(C)O5)OC1C(OC)(O4)C31CO1)C(=O)C(O)CC2OC1CC(C)(O)C(OC(C)=O)C(C)O1` (configuration not stated): the TGI in the experiment with RPMI-8226 leukemia is less than 0.01 µM; in the experiment on SNB-75 CNS, less than 0.01 µM; in the experiment with 786-0 renal it was less than 0.0115 µM; with ACHN renal, 0.0924 µM; with M14 melanoma, 0.0156 µM; with TK-10 renal it was 18.6 µM. In addition, in the experiment on A549 NSCLC, the TGI worked out at 1.45 µM.
As to `C=C(c1ccccc1)c1cc2c(=O)[nH]ccc2n1C`, the TGI is greater than 100 µM with RPMI-8226 leukemia; 45.6 µM in the experiment on SNB-75 CNS; greater than 100 µM in the experiment with 786-0 renal; greater than 100 µM in the experiment on ACHN renal; greater than 100 µM in the experiment on M14 melanoma; greater than 100 µM in the experiment with TK-10 renal. This compound came in with a TGI in the experiment with A549 NSCLC greater than 100 µM.
As to `CN(C)C(=S)/N=c1\ssc(=Nc2ccccc2)n1-c1ccccc1`, the TGI in the experiment with SNB-75 CNS was 36.5 µM; in the experiment on 786-0 renal, 37.1 µM; in the experiment with ACHN renal it was greater than 100 µM; with M14 melanoma, 44.2 µM; in the experiment with TK-10 renal, 64.4 µM; in the experiment on A498 renal it was greater than 100 µM. Further, the TGI with A549 NSCLC was greater than 100 µM.
Consider `COc1ccc(OCC(=O)O)c2c1CCC(C)C2=O` (configuration not stated), for which the TGI in the experiment with RPMI-8226 leukemia, with 786-0 renal, with ACHN renal, with M14 melanoma, in the experiment on TK-10 renal and in the experiment on A498 renal was greater than 100 µM in each case. This compound also gave a TGI in the experiment on A549 NSCLC greater than 100 µM.
